Key:
[1] = target: LPA2 receptors from the rhesus (Macaca mulatta, UniProt I2CXV3); assay: Calcium-mobilization assay (FURA-2), rhesus LPA2; format: cell-based
Procedure: We investigated structure-activity relationships across species, LPAR subtypes and between Rx100 and two known process impurities encountered in manufacture: Rx103 (‘E’ isomer) and Rx200 (oleyl phosphate and impurity, which can be an Rx100 degradant along with oleyl alcohol). Rx100, Rx103, Rx200 and native LPA were investigated at different human LPAR subtypes. In addition, the activity of these compounds was evaluated at LPA2 receptors from the rhesus, rat and mouse species. Human LPA1/2/3 subtypes were transfected into mouse embryonic fibroblasts (MEF) or rat hepatoma cells (RH7777)—both of which are normally non-responsive or null to LPA. Human LPA4 was transfected into Chinese hamster ovary (CHO) cells and LPA5 into the B103 neuroblastoma cell line. […] The B103 rat neuroblastoma cell line is endogenously nonresponsive to LPA but expresses heterologous LPA5 receptors well. […] LPAR activation elicits a G-protein-mediated transient rise in intracellular calcium level that is proportional to the concentration of LPA applied. The intracellular calcium level was quantified by the calcium-selective fluorescent indicator FURA-2 (e.g., increased intracellular calcium surge=increased fluorescence).

[2] = Rx100 salt screening (solid formation, XRPD wet/dry, filterability, exposure to RH > 90%)
Procedure: We designed a complex and unconventional screening regime to screen for Rx100 crystalline salts. […] The screening regime is described as follows.
Rx100.FA in the form of a viscous liquid and eighteen counter ions were used as starting materials. These counter ions are listed and numbered in Table 4. The numbers will be used for grouping the resulting solids. The screening was performed in three stages.
Stage one (1) included screening 11 counter ions: sodium hydroxide, ammonium hydroxide, ethylenediamine, diethylamine, tromethamine (Tris), hydroxyethyl morpholine, benzathine, dimethylamino ethanol, L-Arginine, L-Lysine, L-Histidine. […] In stage 1, we performed three rounds of experiment.
In the first round of experiment, four (4) solvent systems, i.e., isopropyl alcohol (IPA), diethyl ether (DEE), IPA:water (a mixture at a volume ratio of 95:5) and tetrahydrofuran (THF), were used. Thus in this first round of screening, 44 individual base-acid reactions were conducted in 44 vials.
First, Rx100.FA and each of the bases were mixed in a vial. […] In each of the 44 vials, 211.1 μL of the prepared liquid, which was equivalent to about 35 mg of Rx100.FA, was first dispensed. Then, one equivalent (molar) of each of the 11 bases was dispensed in its corresponding vial. For example, the base sodium hydroxide was added to vials 1, 12, 23 and 34. Similarly, L-histidine was added to vials 11, 22, 33 and 44. Observations were recorded upon addition of the bases in to Rx100.FA.
Second, the solvent in each mixture was depleted. All vials containing the mixtures of Rx100.FA and each of the bases were left under moderate vacuum and nitrogen bleed at room temperature overnight to evaporate the solvent. The vials were then kept under full vacuum for about an hour to make sure the solvents (ethanol and water) are evaporated. Observations on formation of solid upon evaporation were recorded.
Third, solvents were added in each vial to induce solid formation. In each vial, a stir bar and one of the four selected solvents (each 5 volumes with respect to the Rx100.FA) were added. The vials were then capped. IPA was added to the first set of 11 vials (1-11), DEE added to the second set of 11 vials (12-22), IPA:water added to the third set of 11 vials (23-33), and THF added to the fourth set of 11 vials (34-44). The vials were left at room temperature while stirring for at least 5 hours. Observations were recorded.
The first set of XRPD analyses were recorded as “wet” samples. The solids were dried under vacuum for 1 hour and at room temperature followed by XRPD as “dry” sample. The dry solid was then exposed to relative humidity of more than 90% overnight followed by XRPD analysis. For XRPD naming, a number and a letter were used. The number refers to the counter ion and the letter refers to the chronological discovered XRPD pattern of that particular salt.
In the second round of experiment of stage one, another four (4) solvent systems, i.e., methanol (MeOH), tert-Butyl methyl ether (tBME), ethyl acetate and toluene, were used in the same 44 vials as used in the first round experiment. The solvents in all 44 vials from the first round were evaporated to dryness under vacuum and nitrogen bleed. The 4 new solvents were then added into the vials. Methanol was added to the first set of 11 vials (1-11), tBME added to the second set of 11 vials (12-22), Ethyl acetate added to the third set of 11 vials (23-33), and Toluene added to the fourth set of 11 vials (34-44). The same procedure as in the first round of experiment was followed for these new solvents and samples were taken for XRPD analysis.
In the third round of experiment, effect of base equivalence was assessed. […] After addition of the extra base, the previous solvent was evaporated and new solvents added.

[3] = system: bone marrow cells (micronucleated PCEs); assay: In vivo rat bone marrow micronucleus assay; design: species or system Sprague-Dawley rats
Procedure: A GLP-compliant rat micronucleus study was performed using male Sprague-Dawley rats (n=5/group) administered single subcutaneous doses of Rx100.lysine at 0 (0.5% sterile water for injection with 10 mM L-histidine), 125, 250, and […] (doses corrected for purity were 113, 225 and 452 mg/kg). One additional group received the positive control material (cyclophosphamide). Five animals per group were sacrificed 24 hours postdose; five animals from the vehicle and high dose group were sacrificed 48 hours postdose. Following sacrifice, bone marrow cells were collected from the femur. 2000 PCEs per animal were analyzed for the frequency of micronuclei. […] The materials were also shown to be homogenous (relative standard deviation [RSD] of 0.7 to 0.9%). […] Thus, Rx100.Lysine was considered to be negative in the micronucleus assay.

[4] = system: male telemetered cynomolgus monkeys; assay: Cardiovascular safety pharmacology in telemetered monkeys; format: in vivo; settings: SC 0.1, 0.5 and 2.0 mg/kg as the free acid
Procedure: Four male telemetered cynomolgus monkeys were selected, and assigned via a Latin Square design to receive four doses of Rx100.lysine or vehicle via subcutaneous injection at doses of 0 (10 mM histidine in sterile water for injection, USP), 0.1, 0.5 and 2.0 mg/kg as the free acid. Parameters evaluated include clinical observations, body temperature, arterial pressure and ECG evaluations (PR, QT, QRS durations). QTc values were calculated based on data collected for each animal.

[5] = 125 mg/kg single subcutaneous dose, harvest 24 hour
[6] = 250 mg/kg single subcutaneous dose, harvest 24 hour

Chain of LPA2 receptors from the rhesus (I2CXV3 1-351): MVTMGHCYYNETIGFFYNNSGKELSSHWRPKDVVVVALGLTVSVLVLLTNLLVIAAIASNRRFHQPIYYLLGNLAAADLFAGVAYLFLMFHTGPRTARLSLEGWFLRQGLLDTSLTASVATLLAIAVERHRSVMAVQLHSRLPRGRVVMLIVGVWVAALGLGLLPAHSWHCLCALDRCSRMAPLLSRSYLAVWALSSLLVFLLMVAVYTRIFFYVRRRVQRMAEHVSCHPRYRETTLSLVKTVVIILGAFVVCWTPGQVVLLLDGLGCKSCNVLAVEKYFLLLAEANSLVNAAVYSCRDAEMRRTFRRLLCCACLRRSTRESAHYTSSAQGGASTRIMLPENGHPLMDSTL

SMILES	EC50 [1]	Emax ([1]; read-out: Emax (% of LPA))	Stability at high humidity [2]	Crystallinity ([2]; Rx100 salt formed with the named base, XRPD, listed as Rx100.L-Lysine salt)	Filterability ([2]; Rx100 salt formed with the named base, listed as Rx100.L-Lysine salt)	Mean % MNPC (±SD) Male [3, 5]	Mean Ratio PCE:NCE (±SD) Male [3, 5]	Mean % MNPC (±SD) Male [3, 6]	Mean Ratio PCE:NCE (±SD) Male [3, 6]	Mean Ratio PCE:NCE (±SD) Male ([3]; 500 mg/kg single subcutaneous dose, harvest 48 hour)	Toxic/Cytotoxic Effects ([3]; all doses of the test article, statistically significant decreases in the PCE:NCE ratios)	micronucleated PCEs ([3]; any dose, 24 hour point, single SC dose)	clinical signs ([3]; high dose animals at 48 hours postdose)	micronucleated PCEs ([3]; high dose animals, 48-hour time point, not considered biologically relevant)	micronucleus assay, overall result ([3]; rat, in vivo)	ECG intervals [4]	heart rate [4]
CCCCCCCC/C=C\CCCCCCCCOP(O)(O)=S [Rx100, (Z)—O-octadec-9-en-1-yl O,O-dihydrogen phosphorothioate]	104 nM	100%	–	–	–	–	–	–	–	–	–	–	–	–	–	–	–
CCCCCCCC/C=C\CCCCCCCCOP(O)(O)=S [Rx100.L-Lysine, (Z)—O-octadec-9-en-1-yl O,O-dihydrogen phosphorothioate]	–	–	stable at high humidity	showed crystallinity	filterable	0.04%	0.55	0.07%	0.59	0.36	Toxic/Cytotoxic Effects: Rx100.Lysine was cytotoxic to the bone marrow (i.e., statistically significant decreases in the PCE:NCE ratios)	no increase in micronucleated PCEs	hunched posture, hypoactivity and irregular respiration	statistically significant increase	negative	no meaningful changes in PR, QRS, QT and QTc	slight dose-dependent increase in heart rate

From patent US20170226139A1, “CRYSTALLINE SALTS OF (Z)-O-OCTADEC-9-EN-1-YL O,O-DIHYDROGEN PHOSPHOROTHIOATE” (priority 2013, published 2017)
